# In patent publication US20220289794A1, “SYNTHETIC ANTIMICROBIAL PEPTIDES” (priority 2019, published 2022):
# Read-outs that look alike come from different tables or passages of the source. Positions of bridges follow the written chain, without caps; N, C: chain ends. Non-standard residues stand in square brackets, D forms with d. Residues, ends and D or L forms follow the SMILES beside them. d2Nal = N[C@H](Cc1ccc2ccccc2c1)C(=O)O
# Legend:
# [1] = system: PSA
# [2] = system: Methicillin-resistant Staphylococcus aureus MRSA (ATCC BAA-1556)
# [3] = system: Enterococcus faecalis ATCC 29212; conditions: for MIC: ATCC 29212
# [4] = system: E. coli
# [5] = system: Escherichia coli (ATCC BAA-2452)
# [6] = system: Escherichia coli (E. Coli, ATCC 25922); conditions: for MIC of antibiotic: Escherichia coli (ATCC 25922), antibiotic alone
# [7] = system: Klebsiella pneumoniae (KPC, ATCC BAA-1705); conditions: ATCC BAA-1705
# [8] = system: Enterococcus faecium ATCC 27270; conditions: for MIC: ATCC 27270
# [9] = system: P. aeruginosa (ATCC BAA-1744); test: Broad-spectrum activity against Gram-Negative bacteria (MIC); assay type: cell-based; conditions: Table 16, Gram-negative panel
# [10] = system: B. subtilis (ATCC-6633); test: Broad-spectrum activity against Gram-Positive bacteria (MIC); assay type: cell-based; parameters: unit not given here
# [11] = system: Acinetobacter baumannii (ATCC BAA-1605)
# [12] = system: KPC
# [13] = system: MRSA (ATCC BAA-1556); conditions: for MIC of antibiotic: MRSA (ATCC BAA-1556), antibiotic alone
# [14] = system: Klebsiella pneumoniae ATCC 13883
# [15] = system: Enterococcus faecium ATCC 700221; conditions: for MIC: ATCC 700221
# [16] = system: Bacillus cereus (ATCC-13061)
# [17] = system: Staphylococcus aureus ATCC 29213
# [18] = system: MRSA
# [19] = system: Streptococcus pneumoniae ATCC 51938; conditions: for MIC: ATCC 51938
# [20] = system: Enterococcus faecalis ATCC 51575; conditions: for MIC: ATCC 51575
# [21] = system: Streptococcus pneumoniae ATCC 49619; conditions: for MIC: ATCC 49619
# [22] = system: Pseudomonas aeruginosa (ATCC 10145)
# [23] = system: P. aeruginosa (ATCC 10145); test: Broad-spectrum activity against Gram-Negative bacteria (MIC); assay type: cell-based; conditions: Table 16, Gram-negative panel
# [24] = system: Bacillus subtilis (ATCC-6633)
# [25] = system: S. aureus ATCC 29213
# [26] = system: Klebsiella pneumoniae (ATCC BAA-1705); conditions: Table 16, Gram-negative panel
# [27] = system: A. baumannii (ATCC BAA-1605); test: Broad-spectrum activity against Gram-Negative bacteria (MIC); assay type: cell-based; conditions: Table 16, Gram-negative panel
# [28] = system: Escherichia coli (ATCC 25922)
# [29] = system: Pseudomonas aeruginosa (ATCC BAA-1744)
# [30] = system: Pseudomonas aeruginosa (ATCC 27883); conditions: P. aeruginosa ATCC 27883
# [31] = system: Pseudomonas aeruginosa (PSA, ATCC 27883); test: Synergy checkerboard assay (FIC index); assay type: cell-based; conditions: Pseudomonas aeruginosa (ATCC 27883)
# [32] = system: E. coli (ATCC BAA-2452); test: Broad-spectrum activity against Gram-Negative bacteria (MIC); assay type: cell-based; conditions: Table 16, Gram-negative panel
# [33] = system: B. cereus (ATCC-13061); test: Broad-spectrum activity against Gram-Positive bacteria (MIC); assay type: cell-based; parameters: unit not given here
# [34] = in vitro; conditions: human, fresh human red blood cells (washed), pH 7.4
# [35] = system: K. pneumoniae strain ATCC BAA-2470 biofilm
# Protocol: Bacteria. The bacterial strains employed in these assays were obtained from the American Type Culture Collection (ATCC). Each strain was propagated as recommended by the ATCC and each strain was stored as a frozen glycerol stock at −80° C.
# Bacterial Propagation. […] Following the incubation, the culture was diluted to an optical density 625 nm (OD625) of 0.1 in cation adjusted Mueller Hinton Broth (CAMHB), which is equivalent to 1×10^8 CFU/mL. The culture was further diluted to 1×10^6 CFU/mL which was used for the assay.
# Determination of the Temporal Effects of SPL7013 Addition to Inhibit Biofilm Formation. Each strain of bacteria was adjusted to a concentration of 1×10^6 CFU/mL and added to a 96-well flat-bottomed plate in a volume of 100 mL. One-hundred microliters (100 mL) of each compound at 10 concentrations was added in triplicate wells. The cultures were incubated for 24 hours at 37° C. under the appropriate growth conditions for each organism. Following the incubation, the media was removed, and the formed biofilms were fixed for 1 hour at 60° C. Two-hundred microliters (200 mL) of 0.06% crystal violet was added to the wells for 5 to 10 minutes and the wells were then gently washed three times with deionized H2O to remove the crystal violet. Following crystal violet staining 200 mL of 70% ethanol was added to the wells.
# [36] = system: Escherichia coli (E. Coli, ATCC 25922); test: microbe, parasite or virus in culture; conditions: ATCC25922, 24 h, read-out: Escherichia coli (ATCC 25922) MIC, Table 31, [R5W4] (IFX-301), antibiotics alone and PHY-MIX (1:1 w/w)
# [37] = system: Pseudomonas aeruginosa (PSA, ATCC 27883); test: microbe, parasite or virus in culture; conditions: ATCC27883, 24 h
# [38] = system: Methicillin-resistant Staphylococcus aureus MRSA (ATCC BAA-1556); test: microbe, parasite or virus in culture; conditions: ATCCBAA1556|MRSA, 24 h, read-out: MRSA (ATCC BAA-1556) MIC, Table 31, [R5W4] (IFX-301), antibiotics alone and PHY-MIX (1:1 w/w)
# [39] = system: MRSA; test: In vivo Galleria Mellonella Assay (MRSA infection); conditions: MRSA-infected G. mellonella, after one week
molecule,measurement,setting,value
c[Arg-Arg-arg-arg-naI-Trp-naI] [IFX-135],MIC,"[1]; Table 36, P. aeruginosa ATCC 27883",32 µg/mL
same,MIC MRSA ATCC BAA-1556,[2]; MRSA ATCC BAA-1556,1.5 µg/mL
same,MIC,[3],8 µg/mL
same,Broad-spectrum activity E. faecalis (ATCC 29212),[3]; E. faecalis ATCC 29212,6.2
same,MIC,"[4]; Table 36, E. coli ATCC 25922",8 µg/mL
same,MIC,"[5]; Table 36, Escherichia coli (ATCC BAA-2452)",16 µg/mL
same,IFX135 MIC,[6]; ATCC 25922,8 µg/mL
same,IFX135 MIC,[7],16 µg/mL
same,MIC,[8],4 µg/mL
same,Broad-spectrum activity E. faecium (ATCC 27270),[8]; E. faecium ATCC 27270,3.1
same,MIC P. aeruginosa (ATCC BAA-1744),[9],12.5 µg/mL
same,Broad-spectrum activity B. subtilis (ATCC-6633),[10],1.5
same,MIC,"[11]; Table 36, Acinetobacter baumannii (ATCC BAA-1605)",16 µg/mL
same,MIC,"[12]; Table 36, Klebsiella pneumoniae (ATCC BAA-1705)",16 µg/mL
same,IFX135 MIC,[13]; ATCC BAA-1556,2 µg/mL
same,MIC K. pneumonia (ATCC 13883),"[14]; Table 16, Gram-negative panel",50 µg/mL
same,MIC,"[14]; Table 36, Klebsiella pneumonia (ATCC 13883)",64 µg/mL
same,MIC,[15],4 µg/mL
same,Broad-spectrum activity E. faecium (ATCC 700221),[15]; E. faecium ATCC 700221,3.1
same,MIC,[16],8 µg/mL
same,MIC,[17],2 µg/mL
same,MIC,[18],2 µg/mL
same,MIC,[19],16 µg/mL
same,Broad-spectrum activity S. pneumoniae (ATCC 51938),[19]; S. pneumoniae ATCC 51938,12.5
same,MIC,[20],16 µg/mL
same,Broad-spectrum activity E. faecalis (ATCC 51575),[20]; E. faecalis ATCC 51575,12.5
same,MIC,[21],16 µg/mL
same,Broad-spectrum activity S. pneumoniae (ATCC 49619),[21]; S. pneumoniae ATCC 49619,12.5
same,MIC,"[22]; Table 36, Pseudomonas aeruginosa (ATCC 10145)",32 µg/mL
same,MIC P. aeruginosa (ATCC 10145),[23],25 µg/mL
same,MIC,[24],2 µg/mL
same,MIC S. aureus ATCC 29213,[25]; S. aureus ATCC 29213,1.5 µg/mL
same,MIC K. pneumonia (ATCC BAA-1705),[26],12.5 µg/mL
same,MIC A. baumannii (ATCC BAA-1605),[27],12.5 µg/mL
same,MIC E. coli ATCC 25922,[28]; E. coli ATCC 25922,8 µg/mL
same,MIC,"[29]; Table 36, Pseudomonas aeruginosa (ATCC BAA-1744)",16 µg/mL
same,MIC P. aeruginosa ATCC 27883,[30],32 µg/mL
same,IFX135 MIC,"[31]; Table 27, peptide alone",32 µg/mL
same,MIC E. coli (ATCC BAA-2452),[32],12.5 µg/mL
same,Broad-spectrum activity B. cereus (ATCC-13061),[33],6.2
N=C(N)NCCC[C@@H]1NC(=O)[C@H](CCCNC(=N)N)NC(=O)[C@H](CCCNC(=N)N)NC(=O)[C@@H]2CSSC[C@H](NC(=O)[C@H](CCCNC(=N)N)NC1=O)C(=O)N[C@@H](Cc1c[nH]c3ccccc13)C(=O)N[C@@H](Cc1c[nH]c3ccccc13)C(=O)N[C@@H](Cc1c[nH]c3ccccc13)C(=O)N[C@@H](Cc1c[nH]c3ccccc13)C(=O)N2 [[R3CW4CR] (IFX-330)] (cyclo(RRRCWWWWCR); disulfide 4-9),MIC,[1],128 µg/mL
same,MIC,[3],32 µg/mL
same,MIC,[4],32 µg/mL
same,MIC,[5]; ATCC BAA-2452,32 µg/mL
same,MIC,[8],8 µg/mL
same,MIC,[11]; ATCC BAA-1605,32 µg/mL
same,MIC,[12],32 µg/mL
same,MIC,[14]; ATCC 13883,32 µg/mL
same,MIC,[15],8 µg/mL
same,MIC,[16],16 µg/mL
same,MIC,[17],16 µg/mL
same,MIC,[18],8 µg/mL
same,MIC,[20],32 µg/mL
same,MIC,[22]; ATCC 10145,64 µg/mL
same,MIC,[24],8 µg/mL
same,MIC,[29]; ATCC BAA-1744,32 µg/mL
"N=C(N)NCCC[C@@H]1NC(=O)[C@@H](CCCNC(=N)N)NC(=O)[C@H](CCCNC(=N)N)NC(=O)[C@@H](Cc2ccc3ccccc3c2)NC(=O)[C@@H](Cc2ccc3ccccc3c2)NC(=O)[C@H](Cc2c[nH]c3ccccc23)NC(=O)[C@@H](CCCNC(=N)N)NC1=O [IFX-111, c[Arg-arg-Arg-arg-Trp-naI-naI]] (cyclo(R[dR]R[dR]W[d2Nal][d2Nal]))",MIC MRSA ATCC BAA-1556,[2]; ATCC BAA-1556,1.5 µg/mL
same,MIC S. aureus ATCC 29213,[25]; ATCC 29213,1.5 µg/mL
same,MIC E. coli ATCC 25922,[28]; ATCC 25922,6.2 µg/mL
same,MIC P. aeruginosa ATCC 27883,[30],12.5 µg/mL
same,HC50 at 0.5 h,[34],205 µg/mL
same,inhibition of biofilm formation,[35]; ATCC BAA-2470,≤ 23%
"CN(C)[C@@H]1C(O)=C(C(N)=O)C(=O)[C@@]2(O)C(O)=C3C(=O)c4c(O)cccc4[C@@](C)(O)[C@H]3C[C@@H]12 [tetracycline, reference compound]",MIC,[36],8 µg/mL
same,MIC,"[37]; read-out: Pseudomonas aeruginosa (ATCC 27883) MIC, Table 29, [R6W4] (IFX-318), antibiotics alone and PHY-MIX (1:1 w/w)",32 µg/mL
same,MIC,"[37]; read-out: Pseudomonas aeruginosa (ATCC 27883) MIC, Table 31, [R5W4] (IFX-301), antibiotics alone and PHY-MIX (1:1 w/w)",32 µg/mL
same,MIC of antibiotic,[6],8 µg/mL
same,MIC of antibiotic,[6]; Table 25,8 µg/mL
same,MIC of antibiotic,[6]; Table 26,8 µg/mL
same,MIC of antibiotic,[13],0.25 µg/mL
same,MIC of antibiotic,[13]; Table 25,0.250 µg/mL
same,MIC,[38],0.25 µg/mL
same,larvae killed,[39],56.3%
same,MIC of antibiotic,[31]; antibiotic alone,32 µg/mL
same,MIC of antibiotic,"[31]; Table 26, antibiotic alone",32 µg/mL
same,antibiotic MIC,"[31]; Table 27, antibiotic alone",32 µg/mL
N=C(N)NCCC[C@@H]1NC(=O)[C@H](CCCNC(=N)N)NC(=O)[C@H](CCCNC(=N)N)NC(=O)[C@H](CCCCN)NC(=O)[C@H](Cc2c[nH]c3ccccc23)NC(=O)[C@H](Cc2c[nH]c3ccccc23)NC(=O)[C@H](Cc2c[nH]c3ccccc23)NC(=O)[C@H](Cc2c[nH]c3ccccc23)NC(=O)[C@H](CCCNC(=N)N)NC(=O)[C@H](CCCNC(=N)N)NC1=O [[R5W4K] (IFX-315)] (cyclo(RRRRRWWWWK)),MIC,[1],16 µg/mL
same,MIC,[3],16 µg/mL
same,MIC,[4],16 µg/mL
same,MIC,[5]; ATCC BAA-2452,25 µg/mL
same,MIC,[8],8 µg/mL
same,MIC,[11]; ATCC BAA-1605,32 µg/mL
same,MIC,[12],32 µg/mL
same,MIC,[14]; ATCC 13883,8 µg/mL
same,MIC,[15],8 µg/mL
same,MIC,[16],16 µg/mL
same,MIC,[17],8 µg/mL
same,MIC,[18],8 µg/mL
same,MIC,[19],2 µg/mL
same,MIC,[20],32 µg/mL
same,MIC,[21],2 µg/mL
same,MIC,[22]; ATCC 10145,32 µg/mL
same,MIC,[24],8 µg/mL
same,MIC,[29]; ATCC BAA-1744,16 µg/mL
"CN(C)c1cc(NC(=O)CNC(C)(C)C)c(O)c2c1C[C@H]1C[C@H]3[C@H](N(C)C)C(O)=C(C(N)=O)C(=O)[C@@]3(O)C(O)=C1C2=O [Tigecycline, reference compound]",change of biofilm formation,"[35]; K. pneumoniae, two of the lowest concentrations, 0.2 mg/mL and 0.1 mg/mL",increase in biofilm formation
